Patent US11319299B2, “Substituted carboxamides as inhibitors of WDR5 protein-protein binding” (PROPELLON THERAPEUTICS INC., priority 2016, dated 2022)

Molecular target: WDR5 (Homo sapiens (Human), UniProt P61964)
Assay: Surface Plasmon Resonance (SPR) assay, KD and residence time
Assay type: binding
Conditions: surface plasmon resonance (SPR) assay; read-out: WDR5 binding affinity (KD)

Compound | Kd
C[C@@H]1CN(c2cc(F)c(C3=CCN(C)CC3)cc2NC(=O)c2c[nH]c(=O)cc2C(F)(F)F)C[C@H](C)N1C [Example 267, N-[4-fluoro-5-(1-methyl-3,6-dihydro-2H-pyridin-4-yl)-2-[(3R,5S)-3,4,5-trimethylpiperazin-1-yl]phenyl]-6-oxo-4-(trifluoromethyl)-1H-pyridine-3-carboxamide] | 10.7 nM
Cc1cc(C#N)ncc1-c1cc(NC(=O)c2c[nH]c(=O)cc2C(F)(F)F)c(N2C[C@@H](C)N(C)[C@@H](C)C2)cc1F [Example 269, N-[5-(6-cyano-4-methylpyridin-3-yl)-4-fluoro-2-[(3R,5S)-3,4,5-trimethylpiperazin-1-yl]phenyl]-6-oxo-4-(trifluoromethyl)-1H-pyridine-3-carboxamide] | 8.74 nM
C[C@@H]1CN(c2cc(F)c(C3=CCN(c4ccccn4)CC3)cc2NC(=O)c2c[nH]c(=O)cc2C(F)(F)F)C[C@H](C)N1C [Example 270, N-[4-fluoro-5-(1-pyridin-2-yl-3,6-dihydro-2H-pyridin-4-yl)-2-[(3R,5S)-3,4,5-trimethylpiperazin-1-yl]phenyl]-6-oxo-4-(trifluoromethyl)-1H-pyridine-3-carboxamide] | 0.938 nM
Cc1cnc(N2CC=C(c3cc(NC(=O)c4c[nH]c(=O)cc4C(F)(F)F)c(N4C[C@@H](C)N(C)[C@@H](C)C4)cc3F)CC2)nc1 [Example 271, N-[4-fluoro-5-[1-(5-methylpyrimidin-2-yl)-3,6-dihydro-2H-pyridin-4-yl]-2-[(3R,5S)-3,4,5-trimethylpiperazin-1-yl]phenyl]-6-oxo-4-(trifluoromethyl)-1H-pyridine-3-carboxamide] | 0.499 nM
C[C@@H]1CN(c2ccc(-c3cc(NC(=O)c4c[nH]c(=O)cc4C(F)(F)F)c(N4C[C@@H](C)N(C)[C@@H](C)C4)cc3F)cn2)C[C@H](C)O1 [Example 272, N-[4-fluoro-5-[6-[(2R,6S)-2,6-dimethylmorpholin-4-yl]pyridin-3-yl]-2-[(3S,5R)-3,4,5-trimethylpiperazin-1-yl]phenyl]-6-oxo-4-(trifluoromethyl)-1H-pyridine-3-carboxamide] | 0.532 nM
C[C@@H]1CN(c2cc(F)c(C3=CCN(c4ncc(Cl)cn4)CC3)cc2NC(=O)c2c[nH]c(=O)cc2C(F)(F)F)C[C@H](C)N1C [Example 275, N-[5-[1-(5-chloropyrimidin-2-yl)-3,6-dihydro-2H-pyridin-4-yl]-4-fluoro-2-[(3R,5S)-3,4,5-trimethylpiperazin-1-yl]phenyl]-6-oxo-4-(trifluoromethyl)-1H-pyridine-3-carboxamide] | 1.54 nM
CCOC(=O)c1ccnc(N2CC=C(c3cc(NC(=O)c4c[nH]c(=O)cc4C(F)(F)F)c(N4C[C@@H](C)N(C)[C@@H](C)C4)cc3F)CC2)n1 [Example 276, ethyl 2-[4-[2-fluoro-5-[[6-oxo-4-(trifluoromethyl)-1H-pyridine-3-carbonyl]amino]-4-[(3R,5S)-3,4,5-trimethylpiperazin-1-yl]phenyl]-3,6-dihydro-2H-pyridin-1-yl]pyrimidine-4-carboxylate] | 1.67 nM
CNC1CCN(c2cc(F)c(-c3cnc(N4CCOCC4)nc3)cc2NC(=O)c2c[nH]c(=O)cc2C(F)(F)F)C1 (stereo not shown) [Example 277, N-[4-fluoro-2-[3-(methylamino)pyrrolidin-1-yl]-5-(2-morpholin-4-ylpyrimidin-5-yl)phenyl]-6-oxo-4-(trifluoromethyl)-1H-pyridine-3-carboxamide] | 14.9 nM
C[C@@H]1CN(c2cc(F)c(-c3cnc(N4CCOCC4)nc3)cc2NC(=O)c2cc(O)cc(C(F)(F)F)c2)C[C@H](C)N1C [Example 280, N-[4-fluoro-5-(2-morpholin-4-ylpyrimidin-5-yl)-2-[(3R,5S)-3,4,5-trimethylpiperazin-1-yl]phenyl]-3-hydroxy-5-(trifluoromethyl)benzamide] | 3.12 nM
C[C@@H]1CN(c2cc(F)c(-c3cnc(N4CCOCC4)nc3)cc2NC(=O)c2cccc(O)c2)C[C@H](C)N1C [Example 281, N-[4-fluoro-5-(2-morpholin-4-ylpyrimidin-5-yl)-2-[(3R,5S)-3,4,5-trimethylpiperazin-1-yl]phenyl]-3-hydroxybenzamide] | 29.1 nM
C[C@@H]1CN(c2cc(F)c(-c3cnc(N4CCOCC4)nc3)cc2NC(=O)c2c(O)cnc3ccccc23)C[C@H](C)N1C [Example 282, N-[4-fluoro-5-(2-morpholin-4-ylpyrimidin-5-yl)-2-[(3R,5S)-3,4,5-trimethylpiperazin-1-yl]phenyl]-3-hydroxyquinoline-4-carboxamide] | 1.98 nM
CN(C)[C@@H]1CCN(c2cc(F)c(-c3cnc(N4CCOCC4)nc3)cc2NC(=O)c2cn(C)nc2C(F)(F)F)C1 [Example 283, N-[4-fluoro-5-(2-morpholin-4-ylpyrimidin-5-yl)-2-[(3R)-3-(dimethylamino)pyrrolidin-1-yl]phenyl]-1-methyl-3-(trifluoromethyl)pyrazole-4-carboxamide] | 14.8 nM
C[C@@H]1CN(c2cc(F)c(C3=CCN(C(=O)N(C)C)CC3)cc2NC(=O)c2c[nH]c(=O)cc2C(F)(F)F)C[C@H](C)N1C [Example 285, N-[5-[1-(dimethylcarbamoyl)-3,6-dihydro-2H-pyridin-4-yl]-4-fluoro-2-[(3R,5S)-3,4,5-trimethylpiperazin-1-yl]phenyl]-6-oxo-4-(trifluoromethyl)-1H-pyridine-3-carboxamide] | 1.01 nM
C[C@@H]1CN(c2cc(F)c(C3=CCN(C(=O)N4CCCC4)CC3)cc2NC(=O)c2c[nH]c(=O)cc2C(F)(F)F)C[C@H](C)N1C [Example 286, N-[4-fluoro-5-[1-(pyrrolidine-1-carbonyl)-3,6-dihydro-2H-pyridin-4-yl]-2-[(3R,5S)-3,4,5-trimethylpiperazin-1-yl]phenyl]-6-oxo-4-(trifluoromethyl)-1H-pyridine-3-carboxamide] | 1.18 nM
C[C@@H]1CN(c2cc(F)c(C3=CCN(C(=O)N4CCN(C)CC4)CC3)cc2NC(=O)c2c[nH]c(=O)cc2C(F)(F)F)C[C@H](C)N1C [Example 287, N-[4-fluoro-5-[1-(4-methylpiperazine-1-carbonyl)-3,6-dihydro-2H-pyridin-4-yl]-2-[(3R,5S)-3,4,5-trimethylpiperazin-1-yl]phenyl]-6-oxo-4-(trifluoromethyl)-1H-pyridine-3-carboxamide] | 1.39 nM
C[C@@H]1CN(c2cc(F)c(C3=CCN(C(=O)Oc4ccccc4)CC3)cc2NC(=O)c2c[nH]c(=O)cc2C(F)(F)F)C[C@H](C)N1C [Example 288, phenyl 4-[2-fluoro-5-[[6-oxo-4-(trifluoromethyl)-1H-pyridine-3-carbonyl]amino]-4-[(3R,5S)-3,4,5-trimethylpiperazin-1-yl]phenyl]-3,6-dihydro-2H-pyridine-1-carboxylate] | 1.11 nM
C[C@@H]1CC(N2CC=C(c3cc(NC(=O)c4c[nH]c(=O)cc4C(F)(F)F)c(N4C[C@@H](C)N(C)[C@@H](C)C4)cc3F)CC2)C[C@H](C)O1 (stereo partly drawn) [Example 289, N-[4-fluoro-5-[1-[(2R,6S)-2,6-dimethyloxan-4-yl]-3,6-dihydro-2H-pyridin-4-yl]-2-[(3S,5R)-3,4,5-trimethylpiperazin-1-yl]phenyl]-6-oxo-4-(trifluoromethyl)-1H-pyridine-3-carboxamide] | 3.74 nM
C[C@@H]1CN(c2cc(F)c(-c3cnc(N4CCOCC4)nc3)cc2NC(=O)c2ccc(O)cc2C(F)(F)F)C[C@H](C)N1C [Example 290, N-[4-fluoro-5-(2-morpholin-4-ylpyrimidin-5-yl)-2-[(3R,5S)-3,4,5-trimethylpiperazin-1-yl]phenyl]-4-hydroxy-2-(trifluoromethyl)benzamide] | 8.9 nM
C[C@@H]1CN(c2cc(F)c(-c3cnc(N4CCOCC4)nc3)cc2NC(=O)c2cc(O)cc(F)c2F)C[C@H](C)N1C [Example 291, 2,3-difluoro-N-[4-fluoro-5-(2-morpholin-4-ylpyrimidin-5-yl)-2-[(3R,5S)-3,4,5-trimethylpiperazin-1-yl]phenyl]-5-hydroxybenzamide] | 4.21 nM
C[C@@H]1CN(c2cc(F)c(-c3ccnc(OCC4CCC4)c3)cc2NC(=O)c2c[nH]c(=O)cc2C(F)(F)F)C[C@H](C)N1C [Example 292, N-[5-[2-(cyclobutylmethoxy)pyridin-4-yl]-4-fluoro-2-[(3R,5S)-3,4,5-trimethylpiperazin-1-yl]phenyl]-6-oxo-4-(trifluoromethyl)-1H-pyridine-3-carboxamide] | 4.32 nM
C[C@@H]1CN(c2cc(F)c(-c3ccnc(OCC(C)(C)C)c3)cc2NC(=O)c2c[nH]c(=O)cc2C(F)(F)F)C[C@H](C)N1C [Example 293, N-[5-[2-(2,2-dimethylpropoxy)pyridin-4-yl]-4-fluoro-2-[(3R,5S)-3,4,5-trimethylpiperazin-1-yl]phenyl]-6-oxo-4-(trifluoromethyl)-1H-pyridine-3-carboxamide] | 3 nM
CCN(CC)c1ncc(-c2cc(NC(=O)c3c[nH]c(=O)cc3C(F)(F)F)c(N3C[C@@H](C)N(C)[C@@H](C)C3)cc2F)cn1 [Example 294, N-[5-[2-(diethylamino)pyrimidin-5-yl]-4-fluoro-2-[(3R,5S)-3,4,5-trimethylpiperazin-1-yl]phenyl]-6-oxo-4-(trifluoromethyl)-1H-pyridine-3-carboxamide] | 2.24 nM
C[C@@H]1CN(c2cc(F)c(-c3cnc(N4CCOCC4)nc3)cc2NC(=O)c2cccc(F)c2C(F)(F)F)C[C@H](C)N1C [Example 295, 3-fluoro-N-[4-fluoro-5-(2-morpholin-4-ylpyrimidin-5-yl)-2-[(3R,5S)-3,4,5-trimethylpiperazin-1-yl]phenyl]-2-(trifluoromethyl)benzamide] | 11.1 nM
C[C@@H]1CN(c2cc(F)c(-c3cnc(N4CCOCC4)nc3)cc2NC(=O)c2cc(F)c(F)c(F)c2)C[C@H](C)N1C [Example 296, 3,4,5-trifluoro-N-[4-fluoro-5-(2-morpholin-4-ylpyrimidin-5-yl)-2-[(3R,5S)-3,4,5-trimethylpiperazin-1-yl]phenyl]benzamide] | 21.2 nM
C[C@@H]1CN(c2cc(F)c(-c3cnc(N4CCOCC4)nc3)cc2NC(=O)c2c(F)cccc2C(F)(F)F)C[C@H](C)N1C [Example 297, 2-fluoro-N-[4-fluoro-5-(2-morpholin-4-ylpyrimidin-5-yl)-2-[(3R,5S)-3,4,5-trimethylpiperazin-1-yl]phenyl]-6-(trifluoromethyl)benzamide] | 22.9 nM
